Test results as given in PubChem BioAssay (NCI).
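Compound exposure: 48 hours, 5 concentrations, 96-well plates. TGI marks complete inhibition of growth.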

How the values were obtained:
Assay in all cases: growth of human tumour cells (NCI), 48 h
[1] = test system: MCF7 breast
[2] = test system: HOP-92 NSCLC
[3] = test system: SK-OV-3 ovarian
[4] = test system: HL-60(TB) leukemia
[5] = test system: IGROV1 ovarian
[6] = test system: SNB-75 CNS
[7] = test system: HCT-15 colon
[8] = test system: CCRF-CEM leukemia
[9] = test system: U251 CNS
[10] = test system: NCI-H226 lung
[11] = test system: SNB-19 CNS
[12] = test system: OVCAR-3 ovarian
[13] = test system: OVCAR-8 ovarian
[14] = test system: A549 NSCLC
[15] = test system: NCI-H460 lung
[16] = test system: LOX IMVI melanoma
[17] = test system: NCI-H522 lung
[18] = test system: HOP-18 NSCLC
[19] = test system: HCT-116 colon
[20] = test system: SK-MEL-2 melanoma

| Structure (SMILES) | TGI [1] [µM] | TGI [2] [µM] | TGI [3] [µM] | TGI [4] [µM] | TGI [5] [µM] | TGI [6] [µM] | TGI [7] [µM] | TGI [8] [µM] | TGI [9] [µM] | TGI [10] [µM] | TGI [11] [µM] | TGI [12] [µM] | TGI [13] [µM] | TGI [14] [µM] | TGI [15] [µM] | TGI [16] [µM] | TGI [17] [µM] | TGI [18] [µM] | TGI [19] [µM] | TGI [20] [µM] |
| --- | --- | --- | --- | --- | --- | --- | --- | --- | --- | --- | --- | --- | --- | --- | --- | --- | --- | --- | --- | --- |
| CCN(CC)CCCOC(=O)/C=C/c1c(C)[nH]c(=O)[nH]c1=O | > 625 | > 625 | > 625 | > 625 | > 625 | > 625 | > 625 | > 625 | > 625 | > 625 | > 625 | > 625 | > 625 | > 625 | > 625 | > 625 | > 625 | > 625 | > 625 | > 394 |
| CCCCCCCCCCCCCCCCSCC(COC)COP(=O)([O-])OCC[N+](C)(C)C (stereo not drawn) | 26.7 | 5.18 | 28.6 | 4.4 | 4.77 | 14.3 | 10.3 | 10.1 | 4.37 | 9.24 | 9.6 | 17 | 22.3 | 20.5 | 6.2 | 17.4 | 10.9 | 16.5 | 18.7 | 29.6 |
| C/C(=N\NS(=O)(=O)c1ccccc1)c1ccccc1 | > 100 | > 100 | > 100 | > 100 | > 100 | > 100 | > 100 | > 100 | > 100 | > 100 | > 100 | > 100 | > 100 | > 100 | > 100 | > 100 | > 100 | > 100 | > 100 | > 100 |
| O=C(CC/C=C(/CS(=O)(=O)c1ccccc1)S(=O)(=O)c1ccccc1)c1ccccc1 | – | > 100 | > 100 | > 100 | > 100 | > 100 | > 100 | > 100 | > 100 | > 100 | > 100 | > 100 | > 100 | > 100 | > 100 | > 100 | 49.8 | > 100 | > 100 | > 100 |
| CC(=O)NCCC1CN(C(=O)/C=C\C#C[Si](C)(C)C)c2ccccc21 (stereo not drawn) | > 100 | > 100 | > 100 | 81.3 | 30.8 | – | 48.9 | > 100 | – | 46 | 93.7 | 84.1 | > 100 | > 100 | > 100 | 44.3 | 24.3 | – | – | 37.8 |
| O=C(NCCCCCCNC(=O)n1cc(F)c(=O)[nH]c1=O)NCCCOCCOCCCNC(=O)C(O)C(O)C(O)C(O)CO (stereo not drawn) | > 2.5 | > 2.5 | > 2.5 | > 2.5 | > 2.5 | > 2.5 | > 2.5 | > 2.5 | > 2.5 | > 2.5 | > 2.5 | > 2.5 | > 2.5 | > 2.5 | > 2.5 | > 2.5 | > 2.5 | > 2.5 | > 2.5 | > 2.5 |
| O=C1CC(=O)c2c(O)cc(O)c(c2O)-c2c(ccc(O)c2O)C2=CC(=O)c3c(O)cc(O)c(c3O2)-c2c1ccc(O)c2O (tested in a mixture with another compound) | > 50 | > 50 | > 50 | > 50 | > 50 | > 50 | > 50 | > 50 | > 50 | > 50 | > 50 | > 50 | > 50 | > 50 | > 50 | > 50 | – | – | > 50 | > 50 |
| CC(=O)OCC1OC(n2cc(F)c(=O)[nH]c2=O)C(N)C(OC(C)=O)C1OC(C)=O (stereo not drawn) | > 100 | > 100 | > 100 | > 100 | > 100 | > 100 | > 100 | > 100 | > 100 | > 100 | > 100 | > 100 | > 100 | > 100 | > 100 | > 100 | > 100 | > 100 | > 100 | > 100 |
